# Data: publication PMC10746280, “Bacterial efflux pump modulators prevent bacterial growth in macrophages and under broth conditions that mimic the host environment” (mBio, 2023)
# How the values were obtained:
# [1] = test system: S. Typhimurium SL1344 (sifB::gfp) in RAW 264.7 macrophages; assay: SAFIRE macrophage assay: intracellular bacterial load (GFP signal within macrophages); type: cell-based, Salmonella enterica serotype Typhimurium; settings: 'Toxic' given instead of a score
# From the text: (§1) In SAFIRE, we used MATLAB software to count the number of macrophages that remain adherent and retain the red fluorescence of MitoTracker, an indicator of voltage across the mitochondrial inner membrane. MATLAB then calculates the signal from bacteria (green fluorescent protein [GFP]) that overlaps with macrophages, as defined by MitoTracker, to estimate bacterial load. […] For example, we observed that the 6-trifluoropyrimidin-2-yl group on the right-hand side of EPM35 is apparently toxic to macrophages. Non-toxic analogs that reduced bacterial load by at least 60% at 5 µM and 25 µM in SAFIRE, as compared with DMSO, progressed and were evaluated in SAFIRE across eight or more concentrations, ranging from 0.001 µM to 50 µM (n = 2). […] Each of the top 13 analogs had at least an eightfold increase in potency and were not toxic for macrophages at 50 µM in the SAFIRE assay (Fig. 1C).
# (§2) As previously described ([18]), RAW 264.7 macrophages (between passages 1 and 6) were grown in complete Dulbecco’s modified Eagle’s medium (DMEM) to approximately 70% to 90% confluence, scraped, washed, resuspended, diluted to 5 × 10^4 in 100 µL, and seeded in black, 96-well, glass-bottomed plates (Brooks Life Sciences catalog number MGB096-1-2-LG-L) at 37°C with 5% CO2. Twenty-four hours later, bacteria grown overnight in LB were diluted into 50 µL phosphate buffered saline (PBS) and added to a final concentration of 1 × 10^7 S. Typhimurium SL1344 (sifB::gfp) per milliliter ([78]) for an approximate multiplicity of infection of 30 bacteria per macrophage cell. Forty-five minutes after bacterial addition, gentamicin (Sigma catalog number G1264) was added to a final concentration of 40 µg/mL to inhibit the growth of remaining extracellular bacteria. Two hours after infection, gentamicin-containing medium was removed and replaced with 200 µL fresh DMEM with compound or DMSO (Sigma catalog number 276855) to the stated final concentrations. At 17.5 h after infection, PBS containing MitoTracker Red CMXRos (Life Technologies catalog number M7512), a vital dye for mitochondrial electric potential, was added to a final concentration of 100 nM. At 18 h after infection, 16% paraformaldehyde was added to a final concentration of 4% and incubated at room temperature for 15 min. Cells were washed twice with PBS and stained for 20 min with 1 µM 4′,6-diamidino-2-phenylindole (DAPI), a vital dye for double-stranded DNA, and stored in 90% glycerol in PBS until imaging. Samples were imaged in six fields of view per well using a semiautomated Yokogawa CellVoyager CV1000 confocal scanner system with a 20×, 0.75-numerical aperture (NA) objective. A MATLAB algorithm calculated bacterial accumulation (GFP fluorescence) within macrophages, as defined by DAPI and MitoTracker Red. GFP^+ macrophage area was defined as the number of GFP-positive pixels per macrophage divided by the total number of pixels per macrophage, averaged across all macrophages in the field ([34]).
# RAW 264.7 macrophages = assay: SAFIRE macrophage assay: host toxicity (adherent macrophage count, morphology); type: cell-based
# From the text: as §1, §2
SMILES,5 uM Avg Antibacterial Score [1],25 uM Avg Antibacterial Score [1],5 uM Avg Cell # Score (RAW 264.7 macrophages),25 uM Avg Cell # Score (RAW 264.7 macrophages)
OC(COc1ccc(F)cc1F)CN1CCC(Nc2nccc(C(F)(F)F)n2)C1 (stereo not drawn) [CU098],92,12,89,88
OC(COc1ccc2c(c1)OCO2)CN1CCC(Nc2nccc(C(F)(F)F)n2)C1 (stereo not drawn) [CU099],104,25,77,102
CC(=O)Nc1cccc(OCC(O)CN2CCC(Nc3nccc(C(F)(F)F)n3)C2)c1 (stereo not drawn) [CU100],105,110,80,96
OC(COc1cc(Cl)cc(Cl)c1)CN1CCC(Nc2nccc(C(F)(F)F)n2)CC1 (stereo not drawn) [CU101],9,Toxic,71,73
OC(COc1cccc(Cl)c1)CN1CCC(Nc2nccc(C(F)(F)F)n2)CC1 (stereo not drawn) [CU102],18,Toxic,82,51
OC(COc1cccc(C(F)(F)F)c1)CN1CCC(Nc2nccc(C(F)(F)F)n2)CC1 (stereo not drawn) [CU103],9,Toxic,82,71
CCOC(=O)c1cccc(OCC(O)CN2CCC(Nc3nccc(C(F)(F)F)n3)CC2)c1 (stereo not drawn) [CU104],13,Toxic,98,61
OC(COc1ccccc1F)CN1CCC(Nc2nccc(C(F)(F)F)n2)CC1 (stereo not drawn) [CU105],102,14,79,98
OC(COc1ccccc1C(F)(F)F)CN1CCC(Nc2nccc(C(F)(F)F)n2)CC1 (stereo not drawn) [CU106],8,Toxic,79,44
OC(COc1cccc(Br)c1)CN1CCC(Nc2nccc(C(F)(F)F)n2)CC1 (stereo not drawn) [CU107],10,Toxic,90,41
Cc1cccc(OCC(O)CN2CCC(Nc3nccc(C(F)(F)F)n3)CC2)c1 (stereo not drawn) [CU108],28,Toxic,94,27
OC(COc1c(Cl)cccc1Cl)CN1CCC(Nc2nccc(C(F)(F)F)n2)CC1 (stereo not drawn) [CU109],56,Toxic,74,44
O=C(CCOc1ccc(Cl)c(Cl)c1)N1CCC(Nc2nccc(C(F)(F)F)n2)CC1 [CU110],107,Toxic,79,27
O=C(CCOc1ccc(Cl)c(Cl)c1)N1CCC(Nc2nccc(C(F)(F)F)n2)C1 (stereo not drawn) [CU111],106,104,86,47
OC(COc1ccccc1C(F)(F)F)CN1CCC(Nc2nccc(C(F)(F)F)n2)C1 (stereo not drawn) [CU112],47,Toxic,88,59
OC(COc1cccc(Br)c1)CN1CCC(Nc2nccc(C(F)(F)F)n2)C1 (stereo not drawn) [CU113],68,Toxic,92,49
Cc1cccc(OCC(O)CN2CCC(Nc3nccc(C(F)(F)F)n3)C2)c1 (stereo not drawn) [CU114],96,5.57,99,146
OC(COc1c(Cl)cccc1Cl)CN1CCC(Nc2nccc(C(F)(F)F)n2)C1 (stereo not drawn) [CU115],99,Toxic,93,59
